Test results as given in US6699384B1, “Compact electrochemical sensor system and method for field testing for metals in saliva or other fluids” (priority 1999, dated 2004).
Values joined by “and” are separate entries in the source; they are usually repeats but may differ in a detail not shown here. Equal values may be shown once.

Experiments:
[1] = Pb in whole blood and saliva of rats after single acute oral doses of Pb-acetate; assay type: in vivo, Fisher 344 rats
Text: Different sample pretreatment procedures for the effective release of the Pb from its binding sites in the biological fluids have been previously reviewed. (Wang, J.: Stripping analysis of trace metals in human body fluids. J. Electroanal. Chem., 139: 225-232 (1982)). It was reported that 0.5 M HCl can effectively release Pb^2+ ion from blood samples. (Nagler, R. M., Baum, B. J., and Fox, P. C.: Effect of X irradiation on the function of rat salivary glands at 3 and 40 days. Rad. Res., 136: 392-396 (1993)). In our work saliva sample was diluted 5 times with acidic solution to a final concentration of 0.5 M HCl. The sample solution was then loaded in sample reservoir and was delivered by the integrated micro-pump. The sample solution flowed across a mercury (Hg)-film working electrode and exited through an outflow groove positioned directly across the Pt auxiliary electrode. Square wave anodic stripping voltametry (SWASV) was utilized for quantitation of Pb in the specimens. For Pb detection, a constant potential of −1.10 V was applied to the glassy carbon Hg-film electrode. When sample solution flowed over the electrode surface, Pb^2+ was reduced and accumulated. After a 3-min accumulation period, the potential of the Hg-film electrode was scanned from −1.10 V to −0.10 V. To eliminate the sample matrix effect for blood and saliva samples, after the accumulation period, a clean solution (0.5 M HCl) was pumped from another reservoir and replaced the sample matrix, then the stripping analysis was performed. After each measurement the Pb was stripped from the electrode surface and the sensor was then available for analysis of the next specimen.
In order to validate the capability of the micro-analytical detection system to quantify Pb in biological specimens, rat studies were conducted using single acute oral doses of Pb-acetate. Adult male Fisher 344 rats were obtained from Charles River Laboratory and ranged from ˜0.230 to 0.260 kg of body weight when used. Groups of rats (3-5 animals/dose) were administered an aqueous solution of Pb-acetate by oral gavage at doses of 0, 20, 50, 100, 200 and 500 mg/kg of body weight. At ˜24 hr post-dosing the rats were anesthetized with an ip injection of ketamine (87 mg/kg):xylazine (13 mg/kg). In addition, each rat was given an ip injection of the cholinergic agonist pilocarpine (1 mg/kg) to induce salivation. Saliva was then collected from each rat, using a glass capillary tube, for approximately 30-min (˜1-2 mL saliva) at which time the rats were exsanguinated by cardiac puncture. Whole blood and saliva specimens were weighed and stored frozen (−80° C.) until the Pb analysis was conducted.
The concentration of Pb in the specimens was determined by inductively coupled plasma/mass spectrometry (ICP-MS). […]

[2] = Rate of salivation during pilocarpine treatment; assay type: in vivo, Fisher 344 rats; conditions: rat, pilocarpine 1 mg/kg ip
Method: In order to validate the capability of the micro-analytical detection system to quantify Pb in biological specimens, rat studies were conducted using single acute oral doses of Pb-acetate. Adult male Fisher 344 rats were obtained from Charles River Laboratory and ranged from ˜0.230 to 0.260 kg of body weight when used. Groups of rats (3-5 animals/dose) were administered an aqueous solution of Pb-acetate by oral gavage at doses of 0, 20, 50, 100, 200 and 500 mg/kg of body weight. At ˜24 hr post-dosing the rats were anesthetized with an ip injection of ketamine (87 mg/kg):xylazine (13 mg/kg). […]
A PBPK model describing the disposition of Pb in the rat was modified to accommodate a saliva compartment. In general, the PBPK model structure and parameter estimations were as previously described, and the reader is referred to O'Flagherty for a detailed description of the model. […] For simplification the model assumes a constant rate of saliva secretion based on the measured rate of salivation during pilocarpine treatment (0.048 L/day), recognizing that this represents an over estimation of normal saliva flow. […] The fraction of cardiac output to the saliva gland and 1st order absorption rate for intraperitoneal (ip) Pb administration were determined by fitting the data of Mobarak and P'an. […]

Structure (SMILES)	blood Pb concentration ([1]; 500 mg/kg oral dose group, 24 hr post-dosing, saliva response non-linear relative to blood)	Pb in rat saliva, Results of ICP/MS ([1]; rat saliva ~24 hr after oral gavage of Pb-acetate, ICP-MS after acid digestion, individual samples 1-3)	Pb in rat saliva, Results of micro Analytical System ([1]; rat saliva ~24 hr after oral gavage of Pb-acetate, SWASV on Hg-film electrode, individual samples 1-3)	saliva Pb as percentage of the concentration in the blood ([1]; rat, oral Pb-acetate, ~24 hr post-dosing)	rate of saliva secretion [2] [L/day]
CC(=O)[O-].CC(=O)[O-].[Pb+2] [Pb, Pb-acetate]	exceeding 0.7 mg/L	99 ppb and 150 ppb and 116 ppb	80 ppb and 108 ppb and 111 ppb	8.5%-9	
CC[C@@H]1C(=O)OC[C@@H]1Cc1cncn1C [pilocarpine]					0.048
